Results published in publication PMC2424174, “Suppression of Tumor Growth and Angiogenesis by a Specific Antagonist of the Cell-Surface Expressed Nucleolin” (PLoS ONE, 2008).

What was measured:
[1] = cited from earlier work
From the text: HB-19 treatment is not toxic in vitro and in vivo. The lack of translocation of HB-19 to the nucleus and nucleolus probably accounts for its lack of toxicity in cultured cells and in mice, since nuclear nucleolin is involved in many aspects of gene expression, [2]. […] In s ...

[2] = tested on: MDA-MB-231 cells; assay: Colony formation in soft agar, MDA-MB-231; assay type: cell-based, human
Method: (§1) Figure 4 HB-19 inhibits colony formation in soft agar by tumor cell lines. (A) MDA-MB-231 cells in culture medium were seeded in triplicate in the absence (histogram C) or presence of 0.1, 0.5 and 1 of µM HB-19, or 0.1 µM of the anti-nucleolin mAb MS-3 or control IgG, or 10 µM bisphosphonate (BisP). (B) Various tumor cell lines (as indicated) in culture medium were seeded in triplicate in the absence (histogram Control) or presence of 5 µM HB-19. After 10–21 days, colonies with diameters greater than 50 µm were scored as positive. Statistical significance: *0.01<p<[…], **p<0.01, ***p<0.001.
(§2) Carcinoma cells (2×10^4) were mixed in 0.35% top agar, diluted in complete medium (DMEM containing 10% FBS) in the absence or presence of HB-19, and plated onto 0.8% bottom agar into 12-well plates. Cells were treated twice a week during 10 to 21 days. Colonies with diameters greater than 50 µm were scored as positive using a phase contrast microscope equipped with a measuring grid at magnification 100× [45]. The number of colonies was determined by analyzing 5 fields/well from 3 wells and the test was repeated at least twice.

[3] = tested on: ERK1/2; assay: Serum-induced phosphorylation of ERK1/2; assay type: cell-based, human; conditions: 2, 5 and 10 µM HB-19; 5 min after 10% FBS
Method: Figure 5 Cell cycle perturbations induced by HB-19 treatment. (A) Analysis of cell cycle parameters in HB-19 treated cells. MDA-MB-231 cells were cultured for 48 hours in medium without FBS (starvation) or in medium containing 10% FBS supplemented or not with 10 µM HB-19. DNA synthesis was quantified after BrdU incorporation and staining with anti-BrdU antibody and 7-AAD, by FACScan analysis. The histograms indicate the relative amount of cells in G1, S and G2/M cell phases. […] Serum starved MDA-MB-231 cells were stimulated with 10% FBS in the absence or presence of 2, 5, and 10 µM of HB-19. Five minutes after serum stimulation, cells were lysed directly in electrophoresis sample buffer and processed for immunoblotting using anti-phospho-p42/44 ERK1/2 and anti-p42/44 ERK antibodies. NS stands for non-stimulated cells.

[4] = tested on: MDA-MB-435 tumor-cell xenografts; assay: MDA-MB-435 xenograft in nude mice; assay type: in vivo, human; conditions: HB-19 5 mg/kg, intraperitoneal, 3 times/week, 8 weeks, n = 10
Method: Figure 8 HB-19 inhibits tumor growth in the nude mice. (A) HB-19 inhibits the growth of MDA-MB-231 tumor-cell xenografts. Cells (2×10^6) were injected subcutaneously into the right flank of female nude mice. Two weeks later, mice with a palpable tumor of approximately 40 mm^3 in volume were randomly separated into three groups (n = 5) and were given peritumoral injections 3 times/week of 0.1 ml PBS alone (Control), HB-19 (5 mg/kg), or Tamoxifen (Tmx) 10 mg/kg) for 6 weeks. (B) HB-19 inhibits the growth of MDA-MB-435 tumor-cell xenografts. Cells (1×10^6) were injected in the mammary fat pad of female nude mice. Two weeks later, mice with a palpable tumor were randomly separated into three groups (n = 10) and were given intraperitoneal injections 3 times/week of 0.1 ml PBS alone (Control), HB-19 (5 mg/kg), or 5-fluouracil (5-FU, 40 mg/kg) for 8 weeks. At the end of each experiment (in A and B), mice were sacrificed and the tumors were excised and weighed. The results are presented as the mean weight ±standard deviation (±S.D.) obtained from the number of mice in each group. (C, D) Inhibition of tumor development in mice treated by intraperitoneal (i.p.) and subcutaneous (s.c.) administration of HB-19. MDA-MB-231 tumor bearing mice in three groups (n = 10) were treated with HB-19 (10 mg/kg) by i.p. or s.c. injections, 3 times/week for 28 days. […]

[5] = tested on: PC3 cells; assay: Colony formation in soft agar, PC3; assay type: cell-based, human; conditions: 5 µM HB-19, PC3
Method: as §1, §2

[6] = tested on: tumor cells; assay: Apoptosis in HB-19 treated cells; assay type: cell-based; conditions: not shown
[7] = Blood cell count in tumor bearing mice; assay type: in vivo, mouse; conditions: 3 times/week, 8 weeks
Method: Figure 8 HB-19 inhibits tumor growth in the nude mice. (A) HB-19 inhibits the growth of MDA-MB-231 tumor-cell xenografts. Cells (2×10^6) were injected subcutaneously into the right flank of female nude mice. Two weeks later, mice with a palpable tumor of approximately 40 mm^3 in volume were randomly separated into three groups (n = 5) and were given peritumoral injections 3 times/week of 0.1 ml PBS alone (Control), HB-19 (5 mg/kg), or Tamoxifen (Tmx) 10 mg/kg) for 6 weeks. (B) HB-19 inhibits the growth of MDA-MB-435 tumor-cell xenografts. Cells (1×10^6) were injected in the mammary fat pad of female nude mice. Two weeks later, mice with a palpable tumor were randomly separated into three groups (n = 10) and were given intraperitoneal injections 3 times/week of 0.1 ml PBS alone (Control), HB-19 (5 mg/kg), or 5-fluouracil (5-FU, 40 mg/kg) for 8 weeks. At the end of each experiment (in A and B), mice were sacrificed and the tumors were excised and weighed. The results are presented as the mean weight ±standard deviation (±S.D.) obtained from the number of mice in each group. (C, D) Inhibition of tumor development in mice treated by intraperitoneal (i.p.) and subcutaneous (s.c.) administration of HB-19. MDA-MB-231 tumor bearing mice in three groups (n = 10) were treated with HB-19 (10 mg/kg) by i.p. or s.c. injections, 3 times/week for 28 days. […] Statistical significance: *p<0.05, **p<0.01, ***p<0.001.
Blood samples were collected by cardiac puncture. Hematocrit level, white blood cells and platelets count were determined individually in whole blood anticoagulated with EDTA (1 mM) at room temperature. Blood cell count was analyzed with an automated flow cytometric blood cell counter (Cell-Dyn 3500, Abbott Laboratories, Rungis, France).

[8] = tested on: athymic nude mice; conditions: mouse, in vivo
Method: Inhibitory action of HB-19 was tested against established human breast carcinoma xenografts in the athymic nude mice. For this purpose, mice were inoculated subcutaneously with MDA-MB-231 or MDA-MB-435 cells that proliferate into palpable tumors in 2 weeks. Tumor bearing mice were then treated with HB-19 (Figure 8A, B) or control antitumoral reagents such as tamoxifen and 5-fluouracil (5-FU). The mice were administered 3 times per week with various drugs, during which time tumor-volume was measured by a caliper every third or fourth day. At the end of experiment, tumor-bearing mice were sacrificed, blood was collected for analysis, and the liver, lungs and spleen were removed for histological analysis.
4-week old female athymic nude Mice (Janvier, Le Genest St Isle, France) were injected subcutaneously in the right flank (MDA-MB-231) or in the mammary fat pad (MDA-MB-435) in 0.1 ml PBS. When the tumor reached about 40 mm^3, the mice were separated randomly in several groups. Administration of HB-19 in PBS (5 mg/kg body weight) was either by intraperitoneal, subcutaneous or peritumoral injections three times per week. Tumor volume was measured along two major axes with calipers. Tumor volume (mm^3) was calculated as follows: V = 4/3×π×R1 ^2×R2, where R1 is radius 1, R2 is radius 2 and R1<R2.

[9] = tested on: B16 cells; assay: Colony formation in soft agar, B16; assay type: cell-based, mouse; conditions: 5 µM HB-19, B16
Method: as §1, §2

[10] = tested on: MDA-MB-231 cells; assay: HB-19 entry in MDA-MB-231 cells, immunofluorescence; assay type: cell-based, human; conditions: 5 µM HB-19/Btn, 1 hour

## pseudo-tripeptide Lysψ(CH2N)-Pro-Arg coupled to a template (H2NLys-Lys-Lys-Gly-Pro-Lys-Glu-Lys-AhxCONH2) [HB-19, pseudopeptide presenting pentavalently the pseudo-tripeptide Lysψ(CH2N)-Pro-Arg coupled to a template]
[1]; a few minutes following intravenous injection
  recovery in bone marrow: a significant proportion of the peptide is recovered in the bone marrow
[1]
  tissue uptake: there is a threshold for the tissue uptake of HB-19
[1]; rats, 24 hours
  persistence in tissue: a significant proportion still persists even after 24 hours in its active form
[1]; rats, systemic administration
  blood clearance: rapidly cleared from blood
  tissue distribution: distributed selectively in tissues expressing enhanced levels of surface nucleolin
[1]; rats
  form of excreted radioactivity in urine: most of the excreted radioactivity in the urine is in the form of HB-19 metabolites
  route of elimination: eliminated gradually by renal glomerular filtration
[2]; 1 µM HB-19, triplicate, colonies >50 µm, 10–21 days
  reduction of colony-forming capacity: 50%
[2]; 5 µM HB-19, MDA-MB-231
  colony formation: reduced markedly
[2]; HB-19 0.1, 0.5 and 1 µM, anti-nucleolin mAb MS-3 0.1 µM
  reduction of colony-forming capacity: reduced significantly
[3]
  serum-stimulated ERK1/ERK2 phosphorylation: prevents enhanced phosphorylation of ERK1/ERK2
[4]
  inhibition of tumor growth: 57%
[5]
  colony formation: reduced markedly
[6]
  apoptosis: not observed
[7]; HB-19 5 mg/kg or 5-FU 40 mg/kg i.p., mean ± SD, n = 10, untreated 0.01±0.02
  Eosinophils: 0.03±0.04 ×10^3/µl
[7]; HB-19 5 mg/kg or 5-FU 40 mg/kg i.p., mean ± SD, n = 10, untreated 0.10±0.06
  Basophils: 0.09±0.04 ×10^3/µl
[7]; HB-19 5 mg/kg or 5-FU 40 mg/kg i.p., mean ± SD, n = 10, untreated 0.20±0.09
  Monocytes: 0.23±0.07 ×10^3/µl
[7]; HB-19 5 mg/kg or 5-FU 40 mg/kg i.p., mean ± SD, n = 10, untreated 0.89±0.39, 5-FU p<0.05
  Neutrophils: 1.03±0.44 ×10^3/µl
[7]; HB-19 5 mg/kg or 5-FU 40 mg/kg i.p., mean ± SD, n = 10, untreated 1.84±0.78, 5-FU p<0.01
  Lymphocytes: 1.98±1.01 ×10^3/µl
[7]; HB-19 5 mg/kg or 5-FU 40 mg/kg i.p., mean ± SD, n = 10, untreated 3.05±1.29, 5-FU p<0.05
  Leukocytes: 3.36±1.28 ×10^3/µl
[7]; HB-19 5 mg/kg or 5-FU 40 mg/kg i.p., mean ± SD, n = 10, untreated 8.73±0.26, 5-FU p<0.0001
  Erythrocytes: 8.31±1.05 ×10^6/µl
[7]; HB-19 5 mg/kg or 5-FU 40 mg/kg i.p., mean ± SD, n = 10, untreated 1041±91
  Platelets: 1037± 225 ×10^3/µl
[7]; HB-19 5 mg/kg, intraperitoneal
  effect on number of platelets, erythrocytes and leukocytes: no effect on the number of platelets, erythrocytes, and leukocytes
[8]
  effect on body weight and blood cell counts: no effect on body weight and on blood cell counts
  effect on tissues at autopsy: no apparent effect on various tissues compared to control mice
[9]
  colony formation: reduced markedly
[10]; 37°C
  internalization and subcellular localization: internalized and is concentrated in the cytoplasm without translocation into the nucleus
[10]; 20°C
  internalization at 20°C: remains attached to the cell surface without entering the cytoplasm
